Read-outs that look alike come from different tables or passages of the source.
Key:
EBOV [1] = assay: microbe, parasite or virus in culture; assay type: cell-based, Ebola virus; details: Zaire ebolavirus; for IC50: read-out: Huh7 IC50; for IC90: read-out: Huh7 IC90
EBOV L (RdRp) activity = assay: cells; assay type: cell-based, Ebola virus; details: for IC50: Zaire ebolavirus, HEK293T/17, 24 h, read-out: IC50 (minigenome luciferase)
in vitro [2] = details: human
in vitro [3] = assay: in vitro
poliovirus 1 = details: cited from earlier work
vaccinia virus = details: cited from earlier work
[4] = test system: vesicular stomatitis Indiana virus; details: cited from earlier work
HEK 293T/T17 cells = details: human
EBOV [5] = assay: microbe, parasite or virus in culture; assay type: cell-based, Ebola virus; details: Zaire ebolavirus
coxsackie virus B4 = details: cited from earlier work
herpes simplex virus 1 = details: cited from earlier work
herpes simplex virus 2 = details: cited from earlier work
African green monkeys = details: monkey, in vivo; cited from earlier work
[6] = test system: Ebola virus/H.sapiens-tc/GIN/2014/Makona-C05 (EBOV); assay: organism not typed; assay type: cell-based
patients = details: human, in vivo; cited from earlier work
[7] = test system: recombinant cowpox virus expressing GFP (rCPXV-GFP); assay: microbe, parasite or virus in culture; assay type: cell-based; details: read-out: Max at conc (percent inhibition)
[8] = mouse, in vivo; cited from earlier work
[9] = test system: Marburg virus/H. sapiens-tc/AGO/2005/Angola-1379v (MARV); assay: organism not typed; assay type: cell-based
reovirus type 1 = details: cited from earlier work
[10] = test system: recombinant vaccinia virus expressing GFP (rVACV-GFP); assay: organism not typed; assay type: cell-based
Sindbis virus = details: cited from earlier work
[11] = test system: Lassa virus strain Josiah (LASV); assay: microbe, parasite or virus in culture; assay type: cell-based; details: read-out: Max at conc (percent inhibition)
[12] = test system: HIV-1 particles pseudotyped with VSIV G; assay type: cell-based, human immunodeficiency virus 1
[13] = test system: human parainfluenza virus 3; details: cited from earlier work
[14] = read-out: Max at conc (percent inhibition)
[15] = Orthopoxvirus vaccinia, read-out: Max at conc (percent inhibition)

CCC(CC)COC(=O)[C@H](C)N[P@](=O)(OC[C@H]1O[C@@](C#N)(c2ccc3c(N)ncnn23)[C@H](O)[C@@H]1O)Oc1ccccc1 [Remdesivir, remdesivir, reference compound]
IC50 (EBOV [1]; Huh-7, 1 h): 87.7 nM
IC90 (EBOV [1]; Huh-7, 1 h): 180 nM
IC50 (EBOV [1]; Huh-7, 2 h): 74.6 nM
IC90 (EBOV [1]; Huh-7, 2 h): 154 nM
IC50 (EBOV [1]; Huh-7, 4 h): 105 nM
IC90 (EBOV [1]; Huh-7, 4 h): 188 nM
IC50 (EBOV [1]; Huh-7, 8 h): 116 nM
IC90 (EBOV [1]; Huh-7, 8 h): 224 nM
IC50 (EBOV [1]; Huh-7, 24 h): 117 nM
IC90 (EBOV [1]; Huh-7, 24 h): 231 nM
IC50 of constant ratio S:R, relative to remdesivir concentration (EBOV L (RdRp) activity): 1,444 nM
IC50 (EBOV L (RdRp) activity): 1440 nM

NSC 133071
CC50 (HEK 293T cells): > 60000 nM

C#CCC(Cc1cnc2nc(N)nc(N)c2n1)c1ccc(C(=O)N[C@@H](CCC(=O)O)C(=O)O)cc1 (stereo partly drawn) [NSC 754230]
CC50 (in vitro [2]): 4 nM

sangivamycin HCl [NSC 143648]
CC50 (HEK 293T cells): > 60000 nM

NC(=O)c1cn([C@@H]2O[C@H](CO)[C@@H](O)[C@H]2O)c2ncnc(N)c12 [Sangivamycin, 4-amino-7-(β-D-ribofuranosyl)pyrrolo[2,3-d]pyrimidine-5-carboxamide]
CC50 (in vitro [3]): > 600 nM
IC50 (poliovirus 1): 226 nM
IC50 (EBOV [1]; Huh-7, 1 h): 103 nM
IC90 (EBOV [1]; Huh-7, 1 h): 148 nM
IC50 (EBOV [1]; Huh-7, 2 h): 106 nM
IC90 (EBOV [1]; Huh-7, 2 h): 143 nM
IC50 (EBOV [1]; Huh-7, 4 h): 57 nM
IC90 (EBOV [1]; Huh-7, 4 h): 132 nM
IC50 (EBOV [1]; Huh-7, 8 h): 72.1 nM
IC90 (EBOV [1]; Huh-7, 8 h): 163 nM
IC50 (EBOV [1]; Huh-7, 24 h): 64.1 nM
IC90 (EBOV [1]; Huh-7, 24 h): 236 nM
IC50 (vaccinia virus): 65 nM
IC50 [4]: 65 nM
cytotoxicity (HEK 293T/T17 cells): approximately 30%
IC50 (EBOV [5]): 60 ± 3 nM
inhibition at 0.15 µM (EBOV [5]; [14]): 100%
IC50 (coxsackie virus B4): 129 nM
IC50 (herpes simplex virus 1): 226 nM
IC50 (herpes simplex virus 2): 226 nM
IC50 of constant ratio S:R, relative to sangivamycin concentration (EBOV L (RdRp) activity): 46.4 nM
reduction of luciferase activity vs untreated control (EBOV L (RdRp) activity): greater than 80%
IC50 (EBOV L (RdRp) activity): 46.4 nM
tolerability (African green monkeys): tolerated
IC50 [6]: 110 ± 8 nM
IC50 ([6]; Zaire ebolavirus): 60 ± 3 nM
IC50 ([6]; Zaire ebolavirus, read-out: IC50 values (range across cell types)): 40 to 100 nM
inhibition at 0.6 µM ([6]; Zaire ebolavirus, read-out: Max at conc (percent inhibition)): 100%
activity against cancer in clinical trials (patients): inactive
tolerability in patients (patients): well tolerated
inhibition at 0.6 µM [7]: 97%
tissue retention [8]: retained in tissues for days
IC50 ([9]; read-out: IC50 values (range across cell types)): 100 to 300 nM
inhibition at 0.6 µM [9, 14]: 100%
IC50 (reovirus type 1): 323 nM
IC50 [10]: > 4 nM
IC50 ([10]; Orthopoxvirus vaccinia): 20 ± 4 nM
inhibition at 0.075 µM [10, 15]: 98%
inhibition at 0.3 µM [10, 15]: 95.4%
IC50 (Sindbis virus): 646 nM
inhibition at 0.3 µM [11]: 104%
inhibition at 0.6 µM [11]: 99.7%
HIV-1 pseudotype transduction [12]: did not affect
IC50 [13]: 65 nM

COc1cc(NS(C)(=O)=O)ccc1Nc1c2ccccc2nc2ccccc12 [NSC 249992]
CC50 (in vitro [2]): 22000 nM

CCc1nc(N)nc(N)c1-c1ccc(Cl)cc1 [NSC 3061]
CC50 (in vitro [2]): 22000 nM

COc1cc(Cc2cnc(N)nc2N)cc(OC)c1OC [NSC 106568]
CC50 (in vitro [2]): > 60000 nM

CN(Cc1cnc2nc(N)nc(N)c2n1)c1ccc(C(=O)N[C@@H](CCC(=O)O)C(=O)O)cc1 [NSC 740]
CC50 (in vitro [2]): 130 nM
